Patent publication US20240358678A1, “METHODS AND COMPOSITIONS FOR ENHANCING CHEMOTHERAPEUTIC DRUG UPTAKE INTO BRAIN TUMORS” (Brown University, priority 2023, published 2024)
“Also recorded” adds a separate entry of the source.

What was measured:
[1] = tested on: G9-PCDH and G34-PCDH xenograft murine models; experiment: Immunofluorescence of brain tissue from GBM xenograft models; assay type: in vivo, mice; conditions: 24 hours after 20 mg/kg BIA
Description: For mouse brain tissue staining, brains were collected from CO2 euthanized and PBS perfused tumor-bearing mice, and fixed in 10% formalin for 72 hours on rotation in the cold. Then, brains were transferred to 30% sucrose for 3 days at 4 degrees Celsius under rotation. Before cryo-sectioning, brains were frozen at −80 degree Celsius for more than 30 minutes, embedded in Optimal Cutting Temperature (OCT) compound (Fisher) and transferred to −27 degrees Celsius to a cryostat (Leica CM1950) for sectioning (20 μm thickness). Sections were placed on slides and staining followed as indicated above. All pictures were taken using a LSM 880 Zeiss confocal microscope.
(§1) In vivo studies: For intra-cranial tumor implantation, GBM neuro-spheres were grown to 70% confluency before dissociated into single cell on the day of surgery. 50,000 cells were resuspended in 3 μl of sterile PBS and injected intracranially into the striatum (2 mm right hemisphere, 1 mm frontal, 3 mm depth from bregma) of mice under anesthesia and stereo-tactically fixed. Tumors were left to grow for approximately 2-3 weeks, depending the cell line. Animals were randomized to treatment groups. BIA injections consisted of 20 mg/kg (i.p.), except if indicated otherwise. PPRX-1701 was administered at 20 mg/kg (i.v.) via lateral tail-vein. Cisplatin injections were performed at 5 mg/kg (maximum tolerated dose, i.p.). All GBM tumor murine studies involved continuous condition and weight assessments, with endpoint considered when 20% of weight loss and/or moderate-to-high grimace scale and neurological symptoms were observed.

[2] = tested on: G9-PCDH, G34-PCDH and GL-261 GBM tumors; experiment: ICP-MS platinum quantification in GBM tumor-bearing mice after BIA and cisplatin; assay type: in vivo; conditions: G9-PCDH xenograft, increasing BIA doses
Description: as §1
(§2) ICP-MS for platinum quantification: Mice treated with cisplatin after BIA administration were euthanized, intra-cardially perfused with PBS and tissue harvested to be stored at −80 degrees Celsius. Tissue was processed and platinum (Pt195) was quantified using an Agilent 7900 ICP-MS, as previously described.^42

[3] = tested on: G9-PCDH, G34-PCDH and GL-261 murine GBM tumors; experiment: as above; assay type: in vivo
Description: as §1, §2

HCMEC/D3 cells [4] = experiment: Flow cytometry of late apoptosis by Sytox Blue staining; assay type: cell-based, human; conditions: any of the used BIA doses, 72 hours, vs cisplatin control
Description: For apoptosis assessment, […]3 cells were treated as indicated above for 72 hours with BIA at indicated doses. Cells were collected from the 6-well plates and washed three times with PBS. Then, incubated with SYTOXTM Blue nucleic acid stain (5 mM) with a dilution of 1:1000 for 15 minutes. Cells were submitted and analyzed in the CytoFLEX system and its software as indicated above.

HBMEC cells = experiment: Real-time PCR for CDH5 in HBMEC cells; assay type: cell-based, human; conditions: 1 μM BIA, up to 48 hours
HCMEC/D3 cells [5] = experiment: Platinum levels in brain endothelial cells treated with BIA and cisplatin; assay type: cell-based, human; conditions: 2 μM BIA and cisplatin simultaneously
HCMEC/D3 cells [6] = experiment: Real-time PCR for CDH5 in HCMEC/D3 cells; assay type: cell-based, human; conditions: 1 μM BIA, up to 48 hours
Description: Real-time PCR: Total RNA from GBM and HCMEC/D3 cells was obtained and processed as indicated above. For cDNA generation, we used 1 μg of RNA and processed with the iScript™ cDNA synthesis kit (BioRad), following the protocol indicated by the provider. All primers were designed using NCBI Primer-Blast tool. Detailed information on primer sequences can be found in FIG. 25 (Supplementary Table 3). Gene expression levels were quantified using PowerUp SYBR Green Master Mix (Applied Biosciences) on QuantStudio 6 Pro System (Applied Biosciences), normalized by housekeeping gene GAPDH expression and represented as relative expression using comparative ΔΔCT method.

murine GBM models = conditions: cited from earlier work
HCMEC/D3 cells [7] = experiment: Cell titer Glo viability assay on HCMEC/D3; assay type: cell-based, human; conditions: ~1-5 μM BIA, 72 hours
Description: Cell viability assay: Cells were plated at a density of 1500 cells/well in black-well clear bottom 96-well plates and left growing in culture conditions overnight. Next day, cells were treated with titrating doses of the indicated compounds. […] For BIA and cisplatin combinatorial studies, cells were incubated with BIA and cisplatin, and corresponding controls, for 5 days. Next, we used the Cell-Titer Glo 3D (Promega) following provider's guidelines and quantified for luminescence signal using a Molecular Devices SpectraMax M2 plate reader. Conditions were repeated in triplicates.

G30 tumors = experiment: DCE-MRI analysis of blood flow within a murine glioblastoma (k-trans); assay type: in vivo, mouse; conditions: 24 hours after BiA 10 mg/kg IP vs pretreatment
Description: Magnetic Resonance Imaging (MRI): MRI was performed at the BWH Imaging Core on a 7T Bruker MRI apparatus. G30 tumors were implanted (50,000 cells per mouse) intracranially into the striatum using a stereotactic frame. After three weeks of tumor growth, MRI images were collected according to BWH Imaging Core protocols using Gadolinium contrast enhancement. After the first image was collected, BiA was administered IP at 10 mg/kg), and imaging were performed again.
The present study investigated whether the indirubin derivative, BiA (see FIG. 1A and FIG. 1B), can disrupt the permeability of the BTB. Blood flow within a murine glioblastoma was assessed using dynamic contrast-enhanced magnetic resonance imaging (DCE-MRI) analysis and as measured by k^trans.
K^trans is calculated by measuring the accumulation of gadolinium-based contrast agent in the extravascular-extracellular space. Interpretation of k^trans varied according to permeability and blood flow. In situations where permeability is very low (near-intact blood brain barrier), then k^trans is a useful measure of permeability, whereas in situations where permeability is very high (disrupted blood brain barrier), then k^trans will reflect perfusion.

G30 tumor-bearing mice = experiment: Sodium fluorescein (NaF) BTB permeability study; assay type: in vivo
Description: as §1, with “All GBM tumor murine studies involved continuous condition and weight assessments, with endpoint considered when 20% of weight loss and/or moderate-to-high grimace scale and neurological symptoms were observed.” left out
Sodium fluorescein (NaF) BTB permeability studies: NaF was administered to G30 tumor-bearing mice intravenously (i.v.) via lateral tail vein at 20 mg/kg. Then, 30 minutes after administration when peak fluorescence is reached in the brain, mice were euthanized for immediate brain tissue harvest. […] Quantification of pixel intensities from acquired images was performed in ImageJ. Tissue samples were then homogenized in 1 mL of 60% trichloroacetic acid in PBS and measured at 488 nm in a Molecular Devices SpectraMax M2 plate reader.

Compound: CC(=O)ON=C1C(=C2C(=O)Nc3cc(Br)ccc32)Nc2ccccc21 [BIA, 6-bromoindirubin acetoxime]
- CDH5 expression in contra-lateral healthy brain regions [1]: did not observe significant changes in expression of CDH5
- CDH5 in CD31+ endothelial cells and CDH5+ tumor cells [1]: striking decrease of CDH5
- Claudin-5 staining in tissue ([1]; G9-PCDH xenograft): no visible differences in Claudin-5 staining
- ZO-1 expression in tissue ([1]; G9-PCDH xenograft): mild reductions of ZO-1 expression
- BIA dose showing significant cisplatin accumulation in the tumor [2]: above 10 mg/kg
- platinum uptake in contralateral healthy brain regions ([3]; cisplatin 5 mg/kg 24 hours after BIA): no significant difference of uptake
- cisplatin (platinum) accumulation in tumor after BIA pre-treatment ([3]; cisplatin 5 mg/kg 24 hours after BIA, 5 hours circulation): significant cisplatin intra-tumoral accumulation
- platinum accumulation in peripheral tissues such as heart or liver ([3]; cisplatin 24 hours after BIA): no difference in platinum accumulation
- late apoptosis/necrosis (HCMEC/D3 cells [4]): did not show late apoptosis/necrosis
- CDH5 expression at the transcriptional level (HBMEC cells): decreased expression
- cellular drug (platinum) accumulation due to BIA addition (HCMEC/D3 cells [5]): did not observe any advantage in drug accumulation
- CDH5 expression at the transcriptional level (HCMEC/D3 cells [6]): decreased expression
- tumor migration and growth (previously reported) (murine GBM models; GBM in vitro and in vivo): halted tumor migration and growth in vitro and in vivo
- angiogenesis of intra-cranial murine GBM models (previously reported) (murine GBM models; mouse, in vivo): reduced angiogenesis
- reduction of viability (HCMEC/D3 cells [7]): up to 30%
- k-trans values in murine glioblastoma (G30 tumors): significantly increased; also recorded: increased perfusion
- NaF fluorescent signal in healthy brain (G30 tumor-bearing mice; after BIA administration): not in healthy brain
- NaF fluorescent signal in the tumor (G30 tumor-bearing mice; after BIA administration vs untreated controls): significant accumulation in the tumor
